Test results: patent publication US20240058344A1, “METHODS OF TREATING NEURODEGENERATIVE DISORDERS AND STAT3-LINKED CANCERS USING SUPPRESSORS OF ELECTRON LEAK” (Cornell University, priority 2020, published 2024)

Tests used:
[1] = Brain levels of compound after i.p. injection or oral consumption (pharmacokinetics); assay type: in vivo, mice
Protocol: (FIGS. 1A-B) Levels of S3QEL2 (FIG. 1A) and S1QEL1.1 (FIG. 1B) in the brain following a single i.p. injection or oral consumption (per oral, PO), which improved duration of exposure. n=3-6 wild-type mice per group. (FIGS. 1C-D) Body weights of male nontransgenic (NTG) or hTauP301S mice treated with S3QEL2 (FIG. 1C) (S3, 5 mg/kg/day, PO in almond butter), S1QEL1.1 (FIG. 1D) (10 mg/kg/day, PO in almond butter), or vehicle. (FIG. 1E) Levels of S3QEL2 in the mouse brain following almond butter (AB) or chow administration at indicated doses for 21 days. (n=15 mice per dose). n=3-15 wild-type mice per condition. (FIG. 1F) Body weight of 4-5-month-old wild-type male mice treated with formulated chow containing S3QEL2 at indicated doses and durations (n=15 mice per dose).
A series of pharmacokinetic and drug tolerance experiments with S3QEL2 in adult wild-type and transgenic hTauP301S mice was first performed. Different administration routes and drug formulations were tested. […] Chow that was formulated to deliver 0, 5, 15, or 30 mg/kg/day of S3QEL2 was also tested.

[2] = test system: GFAP; phospho-serine 202/205 tau; assay: Immunofluorescent staining of GFAP and phospho-serine 202/205 tau (AT8) in hTauP301S mice; assay type: in vivo; conditions: 6 weeks oral dosing
Source text: Immunofluorescent staining and quantification of astrocytic marker GFAP (red, FIG. 4A) and phospho-serine 202/205 tau (AT8, green, FIG. 4B) in male nontransgenic (NTG) and hTauP301S mice after 6 weeks of oral dosing with S3QEL2 or vehicle. (FIGS. 4C-4E) n=12-16 mice per group; *p<0.05, **p<0.01, ***p<0.001, ANOVA with Bonferroni's test.
(§1) As assessed by immunolabeling, hTauP301S mice treated with S3QEL2 also had reduced levels of glial fibrillary acidic protein (GFAP)-positive astrogliosis and phosphorylated tau (FIG. 7). Western blotting confirmed reduced levels of phosphorylated but not total tau in these mice (FIG. 5).

tau = assay: Western blotting of phospho-tau and total tau in hippocampal tissue of hTauP301S mice; assay type: in vivo; conditions: 6 weeks oral dosing
Source text: Levels of phospho-tau (FIG. 5A) and total tau (FIG. 5B) as measured by Western blotting in hippocampal tissue from male nontransgenic (NTG) and hTauP301S mice after 6 weeks of oral dosing with S3QEL2 or vehicle. n=3-6 mice per group. *p<0.05, **p<0.01, ***p<0.001, ANOVA with Dunnett's test.
as §1

ASC/Pycard; CD11b = assay: Immunolabeling of ASC/Pycard and CD11b in hippocampal tissue of hTauP301S mice; assay type: in vivo; conditions: 6 weeks oral dosing
Source text: Levels of immunolabeling for the inflammasome protein ASC/Pycard (FIG. 6A) and the microglial marker CD11b (FIG. 6B) in hippocampal tissue from nontransgenic (NTG) and hTauP301S mice after 6 weeks of oral dosing with S3QEL2 or vehicle. n=3-6 mice per group. *p<0.05, **p<0.01, ***p<0.001, ANOVA with Dunnett's test.
as §1

hTauP301S mice = assay: Survival of hTauP301S mice on S3QEL2-formulated chow; assay type: in vivo; conditions: long-term chow administration from 4-5 months of age
Source text: Nontransgenic (NTG) and transgenic hTauP301S male mice received oral dosing with S3QEL2-formulated chow or control chow (Control) for indicated durations starting at 4-5 months of age. n=14-15 mice per genotype and treatment, pairwise Mantel-Cox test.
Survival rates in wild-type and transgenic hTauP301S mice during chronic treatment with control or S3QEL2-containing chow was also monitored.

[3] = test system: primary neurons with primary mouse microglia; assay: Tau-associated neuronal damage in primary neurons cultured with microglia; assay type: cell-based; conditions: 10 μM; AAV human P301S tau
Protocol: Primary neurons were immunostained for MAP2 or NeuN following mock treatment or transduction with AAV encoding human P301S mutant tau under the synapsin-1 promoter. Neurons were cultured without (FIGS. 9A-9B) or with (FIGS. 9C-9D) primary mouse microglia. S3QEL2 (S3, 10 μM). n=4 per condition.
To begin dissecting the mechanisms by which S3QEL2 affects neural cell function and disease-linked processes, studies in primary cultures were conducted. Isolated mouse-derived neurons were transduced with adeno-associated viral vectors (AAVs) encoding wild-type or the P301S mutant form of the human tau protein (FIG. 8A). […] However, S3QEL reduced neuronal damage in the presence of astrocytes (approx. 30% astrocytes, FIG. 10A). Tau can also promote aberrant neuronal activity and hypersynchrony. S3QEL reduced aberrant neuronal firing in tau-transduced neurons co-cultured with astrocytes (FIGS. 10B-10C).

isolated microglia = assay: Markers of reactivity and immune signaling in isolated microglia (qRT-PCR); assay type: cell-based, mice; conditions: S3QEL2 20 μM, 24 h
Protocol: Microglia isolated from P2-P3 mice were treated with lipopolysaccharide (LPS, 100 ng/ml) or oligomeric Aβ (3 μM), and S3QEL2 (20 μM) or vehicle for 24 h and analyzed by qRT-PCR. n=3 wells per condition.

A-172 glioblastoma cells = assay: Glioblastoma cell proliferation, CellTiter-Glo luciferase assay, A-172; assay type: cell-based, human; conditions: 0-50 μM, 72 and 96 h
Protocol: Relative cell density was measured using the CellTiter-Glo luciferase assay. n=3 wells per condition. *p<0.05, **p<0.01, ***p<0.001 vs. 0 μM, one-way ANOVA with Dunnett's multiple comparisons test.
The effect of S3QELs on proliferation of glial tumor cells that have different oncogenic mutations was assessed. In particular, proliferation rates were assessed in three different human immortalized glioblastoma cells lines (A-172, T98G, and U-87 MG). A-172 and U-87 lines have mutations in PTEN, a phosphatase that indirectly regulates PI3K activities, whereas T98G cell line has a mutation in p53, a well-known tumor suppressor gene. STAT3 can affect PI3K signaling and p53 transcription and could thereby promote glioblastoma cell proliferation. Whether S3QELs reduce glioblastoma cell proliferation and aberrant intracellular signaling was tested.
Briefly, two complementary methods were used to assess cell proliferation, including the CellTiter-Glo assay and DAPI staining of cell nuclei. The effects of S3QEL2 treatment on A-172, T98G, and U-87 MG cells were measured at different drug concentrations (0, 6, 20, 30, 40, or 50 μM) and time-points after treatment (72 or 96 hours). S3QEL2 inhibits proliferation of A-172 and T98G glioblastoma cells in a highly dose-dependent manner and these effects are similar at different time-points (FIG. 15A-B).

primary astrocytes = assay: Intracellular ATP levels in primary astrocytes; assay type: cell-based
Source text: Antimycin A and myxothiazol were used as positive controls to inhibit mitochondrial respiration and ATP production. n=3 wells per condition. ***p<0.001 vs. vehicle, mixed-effects model with Dunnett's multiple comparisons test.

Which results are given for `CCCN(CCC)c1ncnc2c1cnn2-c1ccc(C)c(C)c1` [S3QEL2]?
Crossing of the blood-brain barrier (levels in the brain) ([1]; after peripheral administration, wild-type mice): readily crossed the blood-brain barrier; Increase in the area under the curve of drug presence in the brain, oral intake as compared to i.p. injection ([1]; brain, oral vs intraperitoneal): 6 fold; Chronic delivery to the brain by formulated chow ([1]; chow vs almond butter, 21 days, wild-type mice): equally effective in chronically delivering S3QEL2 to the brain; GFAP-positive astrogliosis (immunolabeling) [2]: reduced; Phosphorylated tau (AT8 immunolabeling) [2]: reduced; Phospho-tau levels (Western blotting) (tau): reduced; ASC/Pycard protein immunolabeling (ASC/Pycard; CD11b): reduced; CD11b protein immunolabeling (ASC/Pycard; CD11b): reduced; Early mortality associated with tauopathy (hTauP301S mice): significantly reduced early mortality; Tau-associated neuronal damage, neurons cultured with microglia [3]: did not affect tau-associated neuronal damage; Markers of reactivity and immune signaling in microglia (isolated microglia; LPS 100 ng/ml): did not affect markers of reactivity and immune signaling; Markers of reactivity and immune signaling in microglia (isolated microglia; oligomeric Aβ 3 μM): did not affect markers of reactivity and immune signaling; Cell proliferation (relative cell density, CellTiter-Glo) (A-172 glioblastoma cells): dose-dependently inhibited cell proliferation; Intracellular ATP levels (primary astrocytes): do not affect intracellular ATP levels
